Data on 7 compounds can be found in article PMC2376372, “3-Bromophenyl 6-acetoxymethyl-2-oxo-2H-1-benzopyran-3-carboxylate inhibits cancer cell invasion in vitro and tumour growth in vivo” (British Journal of Cancer, 2003).

Each structure is given as a SMILES string. Like-named read-outs stand apart in the source and are kept apart here. A value given as a limit tells only on which side of the number the result lay.

Data set [1] deals with HT1080 fibrosarcoma cells. Put plainly: Chemoinvasion assay, type IV collagen-coated Transwell inserts (Boyden chamber). Type of data set: cell-based, human. The conditions noted are these: type IV collagen-coated filters; for inhibition of HT1080 cell invasion (chemoinvasion) / inhibition at 1 µM: 1 μM; for inhibition of HT1080 cell invasion (chemoinvasion): 48 h; for inhibition at 1 µM / inhibition at 10 µM: Homo sapiens, HT-1080, 48 h, read-out: inhibition of HT1080 cell invasion (chemoinvasion). As to the method:
Plates (24-well) (Falcon, Becton-Dickinson, USA) and 6.5 mm polycarbonate filters (8 μm pore size) of Transwell cell culture chamber inserts (Costar, Netherlands) were coated with 100 μl of type IV collagen purified from human placenta diluted at 200 μg ml^−1 in phosphate-buffered saline (PBS). Coats were left to air-dry overnight in a laminar flow hood under UV light. Uniformity of the coating was assessed by Coomassie blue staining. Before use, coated plates and inserts were washed twice with water and incubated for at least 1 h in serum-free DMEM at 37°C ([Maquoi et al, 1999]).
(§1) HT1080 cells exponentially growing in T-75 flasks (Nunc, Costar, Netherlands) were collected by trypsin–ethylenediaminetetraacetic acid treatment, washed with serum-containing medium and allowed to recover from trypsinisation for at least 30 min at 37°C. Cells were then washed twice in serum-free DMEM and diluted in the same medium supplemented with 0.1% bovine serum albumin (BSA, fraction V, Sigma, USA) to a cell density of 6 × 10^5 cells ml^−1.
(§2) The influence of coumarin derivatives (0.1, 1 and 10 μM) on HT1080 cell invasion and migration was assayed using Transwell cell culture inserts (Costar) and compared to the reference compound GI 129471 (1 μM), an MMP inhibitor ([Wheeler et al, 1998]).
(§3) For chemoinvasion assays, type IV collagen-coated membranes (see above) were used, whereas uncoated membranes were employed for chemotaxis assays. Lower wells of chambers were filled with DMEM supplemented with 20% FCS and 1% BSA (fraction V, ICN) as chemoattractant, in the presence or absence of coumarin derivative (final concentration 0.1, 1 and 10 μM) or GI 129471 (final concentration 1 μM). Cells (6 × 10^4) suspended in DMEM supplemented with 0.1% BSA (fraction V, ICN) were seeded in the upper wells. Chambers were subsequently incubated for 48 and 4 h for chemoinvasion and chemotaxis assays, respectively, in a humid atmosphere at 37°C (in order to maintain a chemotactic gradient, media from both lower and upper wells were renewed after 24 h). After incubation, filters were removed from the chambers, fixed in 4% paraformaldehyde for 15 min (4°C), permeabilised for 10 min in methanol (−20°C) and stained with Giemsa (4%) for 15 min. The upper surface of the filters was scrapped with a cotton swab and cells having reached the lower surface of the filters were visually counted using a light microscope (Vanox AH3, Olympus, Hamburg, Germany) at 20-fold magnification. Each assay was performed in triplicate. Results were expressed as percentages (±s.d.) of the migration of control cells.

Data set [2] deals with HT1080 fibrosarcoma cells. Put plainly: Chemotaxis assay, uncoated Transwell inserts. The conditions noted are these: 1 μM, 4 h, uncoated filters. Type of data set: cell-based, human. Here is the method: as §1, §2, §3
The target of another data set is α-CT. The note with it: cited from earlier work; for ki/KI or kobs/[I], α-CT: pH 7.5, 25°C.
For another data set, the target named is T1, HLE (Homo sapiens, UniProt P08246).
T1 construct: purchased Elastase Products Co
T1 sequence (P08246 30-267): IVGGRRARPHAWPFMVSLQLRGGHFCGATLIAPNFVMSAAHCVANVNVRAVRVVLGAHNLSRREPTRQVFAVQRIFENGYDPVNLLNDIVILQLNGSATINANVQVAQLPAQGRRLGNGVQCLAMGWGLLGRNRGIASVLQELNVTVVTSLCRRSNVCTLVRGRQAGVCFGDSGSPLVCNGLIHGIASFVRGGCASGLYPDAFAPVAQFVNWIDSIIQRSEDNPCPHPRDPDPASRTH
The note with it: cited from earlier work; for ki/KI or kobs/[I], HLE: pH 8.0, 25°C.

The target in another data set is T2, LMW-uPA (Homo sapiens, UniProt P00749).
T2 construct: Bovine α-CT and LMW-uPA (MW=33 000 Da) were purchased from Sigma; purchased Sigma
Put plainly: Inactivation of LMW-uPA (preincubation method). It counts as biochemical. As to the method:
(§4) Bovine α-CT and LMW-uPA (MW=33 000 Da) were purchased from Sigma, HMW-uPA (MW=54 000 Da) from Choay, trypsin (TRY) and THR from Boehringer-Indelheim (Germany), and MMP-2 and MMP-9 from Calbiochem. Human leucocyte elastase and PM were from Elastase Products Co. and Biogenic, respectively. Except for THR, HMW-uPA, MMP-2 and MMP-9, enzyme concentrations were determined by active-site titrations using the appropriate titrant ([Bender et al, 1966]; [Chase and Shaw, 1970]; [Powers and Gupton, 1977]). […]
(§5) The kinetic parameters for the inhibition were determined either by the preincubation method for LMW-uPA and PM (small aliquots of the reaction mixture were withdrawn at intervals of time and the remaining activity determined), or by the progress curve method (HLE) when the inhibition was too fast to be measured accurately using the preincubation method. […]
(§6) At low inhibitor concentrations, the ratio ki/KI was obtained as kobs/[I]0. […] In the progress curve method, the substrate competes with the inhibitor and the kinetic parameters are determined as previously described ([Doucet et al, 1999]). […]

The next data set has as its target T3, Plasmin (Homo sapiens, UniProt P00747).
T3 construct: No; X′; α-CT; HLE; LMW-uPA; Plasmin; purchased Biogenic
Put plainly: Inactivation of plasmin (preincubation method). Type of data set: biochemical. The conditions noted are these: pH 7.5, read-out: ki/KI or kobs/[I], Plasmin. Here is the method:
as §4, §5, §6

T3 sequence (P00747 581-810 limits assumed, species assumed): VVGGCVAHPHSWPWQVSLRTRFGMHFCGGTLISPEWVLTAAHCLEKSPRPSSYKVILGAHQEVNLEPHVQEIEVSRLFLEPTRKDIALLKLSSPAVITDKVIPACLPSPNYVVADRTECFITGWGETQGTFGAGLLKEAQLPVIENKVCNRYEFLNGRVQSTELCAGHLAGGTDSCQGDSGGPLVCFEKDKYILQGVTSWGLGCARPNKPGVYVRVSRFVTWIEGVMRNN
T3 sequence (P00747 97-580 partner limits assumed, species assumed): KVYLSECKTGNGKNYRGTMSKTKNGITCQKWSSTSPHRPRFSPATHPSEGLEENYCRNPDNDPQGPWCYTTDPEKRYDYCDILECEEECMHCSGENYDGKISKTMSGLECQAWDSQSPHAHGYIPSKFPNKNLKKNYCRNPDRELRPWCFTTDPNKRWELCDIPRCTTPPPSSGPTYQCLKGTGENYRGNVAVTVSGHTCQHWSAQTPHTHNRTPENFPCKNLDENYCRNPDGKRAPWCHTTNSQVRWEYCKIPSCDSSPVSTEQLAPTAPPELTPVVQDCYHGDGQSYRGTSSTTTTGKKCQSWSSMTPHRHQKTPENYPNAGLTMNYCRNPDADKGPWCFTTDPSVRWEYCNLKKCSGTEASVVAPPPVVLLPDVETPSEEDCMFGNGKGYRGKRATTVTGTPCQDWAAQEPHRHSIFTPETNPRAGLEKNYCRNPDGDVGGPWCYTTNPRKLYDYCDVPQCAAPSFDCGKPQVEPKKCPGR

Take `CNC(=O)[C@H](Cc1ccccc1)NC(=O)[C@H](CC(C)C)[C@H](CSc1ccccc1)C(=O)NO` [GI 129471, reference compound]: the “inhibition of HT1080 cell invasion (chemoinvasion)” value in data set [1] is recorded as 60%. Besides, the results for the chemotaxis inhibition in data set [2] and in data set [2] (listed as reference compound) were 30% and 20–30%, respectively.
What is called inhibition is the drop in the measured response relative to a control, in per cent. On to `O=C(Oc1cccc(Cl)c1)c1cc2ccccc2oc1=O` [compound 1], for which, in data set [1], the inhibition at 1 µM was determined as 50% and the inhibition at 10 µM is 65%. Further, the “ki/KI or kobs/[I], α-CT” value at α-CT (ref Pochet et al (2000)) was <500^a M^−1 s^−1. Besides, the “ki/KI or kobs/[I], HLE” value on HLE (ref Pochet et al (2000)) is on record as 610^a M^−1 s^−1.
`Cc1ccc2oc(=O)c(C(=O)Oc3cccc(Cl)c3)cc2c1` [compound 2]: in data set [1], the inhibition at 1 µM is 50% and the inhibition at 10 µM worked out at 70%. The “ki/KI or kobs/[I], α-CT” value at α-CT (ref Pochet et al (2000)) was 9400^a M^−1 s^−1. The “ki/KI or kobs/[I], HLE” value on HLE (ref Pochet et al (2000)) was 1100^a M^−1 s^−1.
Consider `O=C(Oc1cccc(Cl)c1)c1cc2cc(CCl)ccc2oc1=O` [compound 3, 3-chlorophenyl 6-chloromethyl-2-oxo-2H-1-benzopyran-3-carboxylate], for which, in data set [1], the inhibition at 10 µM worked out at 30%. Moreover, the kinact/KI came to 336 M⁻¹ s⁻¹ on LMW-uPA (pH 7.5, read-out: ki/KI or kobs/[I], LMW-uPA) and 600 M⁻¹ s⁻¹ at Plasmin. The “reactivation of inhibited LMW-uPA” value on LMW-uPA (spontaneously after 18 h incubation or after treatment with NH2OH (pH 7.5, 25°C)) was “No reactivation”. The “ki/KI or kobs/[I], α-CT” value on α-CT (ref Pochet et al (1996)) is on record as 762700^b M^−1 s^−1. In addition, the “mode of inhibition of α-CT” value in the data set with α-CT (ref Pochet et al, 1996, 2000) is listed as “suicide substrate leading to enzyme irreversible inhibition”. Moreover, on HLE (ref Pochet et al (1996)), the “ki/KI or kobs/[I], HLE” value is on record as 630^b M^−1 s^−1. At HLE (ref Pochet et al, 1996, 2000), the “mode of inhibition of HLE” value was “transiently inactivated”.
On to `CC(=O)OCc1ccc2oc(=O)c(C(=O)Oc3ccccc3)cc2c1` [compound 5], for which, in data set [1], the inhibition at 1 µM is 30% and the inhibition at 10 µM is 50 to 60%.
The melting point is the temperature, or range, at which the solid turns liquid. Regarding `CC(=O)OCc1ccc2oc(=O)c(C(=O)Oc3cccc(F)c3)cc2c1` [compound 6], the melting point is 170 to 172 °C. For the same compound, in data set [1], the inhibition at 1 µM turned out to be 80%.
As to `CC(=O)OCc1ccc2oc(=O)c(C(=O)Oc3cccc(I)c3)cc2c1` [compound 8], the melting point was 169 to 170 °C. The “inhibition of HT1080 cell invasion (chemoinvasion)” value in data set [1] is “quite similar to that observed with the reference compound”.
